In patent US20150209281A1, “LIPOSOMAL COMPOSITIONS OF EPOXYKETONE-BASED PROTEASOME INHIBITORS” (ONYX THERAPEUTICS, INC., priority 2012, published 2015):
≈ marks a conversion by molar mass, not a printed value. Like-named read-outs stand apart in the source and are kept apart here.

Assay: Aqueous solubility of carfilzomib
Format: physicochemical

CC(C)C[C@H](NC(=O)[C@H](CCc1ccccc1)NC(=O)CN1CCOCC1)C(=O)N[C@@H](Cc1ccccc1)C(=O)N[C@@H](CC(C)C)C(=O)[C@@]1(C)CO1 [carfilzomib]
solubility (30 °C, simulated gastric fluid, thermodynamic from solid, 0.1M HCl aqueous solution, ~pH 1, read-out: Approximate carfilzomib solubility at pH 1): ~1800 µg/mL (≈ 2500 µM)
solubility (aqueous medium, read-out: aqueous solubility): < 1 µg/mL
